Columns and labels:
CLP mice [1] = test: Sepsis score after CLP; format: in vivo, C57Bl/6 mice; conditions: evaluated every 12 hours
Protocol: Analgesia and rehydration of mice were performed with buprenorphine (0.1 mg/Kg, Buprecare, Axience, Pantin, France) every 12 hours until complete recovery. […] Clinical scoring: Sepsis severity was evaluated twice a day until day 4, or normalization of «sepsis score», a previously described score that ranges from […]. This score evaluates markers of local (abdominal spasm) and systemic reaction to sepsis (rectal temperature, fur erection, abnormal breathing), behavioural alterations (feces cleaning, presence of periocular dried eyedrop, incomplete palpebral opening, spontaneous activity in the cage, the escape attempt after tail grabbing) and signs of muscular weakness (grip strength, body tone, difficulty to walk). Each item was scored 0 or 1, with a total score rang from 0 (normal) to 12 (highly severe). For ethical reason, mice with a sepsis score ≥8 and a temperature ≤34.5° C. were euthanized as they were considered to almost certainly die within the 12 hours.
FIG. 1C. Sepsis score was evaluated every 12 hours (general state criteria, temperature, fur erection, respiratory rate, sickness behaviour, spontaneous activity in the home cage, lacrimation, palpebral closure, feces toilet, locomotor criteria, grip strength, difficulties walking, local reaction, abdominal wall contraction, axial body tone). Datas are presented as mean±SEM.

CLP mice [2] = test: Open field test after sepsis; format: in vivo; conditions: septic mice, 10 days after sepsis, vs saline
Protocol: […] The experimentator was blinded to the experimental group.
Open Field Mice were placed 45 minutes before being held in the experimental room. Single mice were then placed in a squared 40 cm box in an experimental room and captured with a camera during 10 minutes. Mice were tracked using Ethovision XT and their tail, nose and barycenter was marked. The total length walked, the ratio of time spent moving/non moving, the maximum velocity and the mean distance from barycenter to arena's center were recorded. Datas are presented as Mean±SEM.
Datas are presented as mean±SEM. Sepsis presented a persisting effect on locomotor functions:sepsis lowered the distance traveled (E, p<0.05), increased the time spent not moving (F, p<0.05) and the mean distance to center (G, p<0.05) compared to control mice.

CLP mice [3] = test: Fear conditioning test after sepsis; format: in vivo
Protocol: (§1) Comportemental tests: Every comportemental tests were started 15 days after sepsis induction. The experimentator was blinded to the experimental group.
Fear conditioning. Mice underwent the classical fear conditioning test with a cued stimulus (auditory tone) and an uncued stimulus (electric shock). During two consecutive conditioning trials, 2 minutes resting followed by a 48s tone ([…] tone, 60 db) and 5 electrical footshocks of 2 joules during 2 seconds. Twenty four hours after conditioning, mice underwent the fear memory recall after exposition to a contextual stimulus (shock cage in the same configuration without auditory tone) or an auditory stimulus (Auditory tone in a different cage with a vanilla artificial odor). Freezing was evaluated for 2 seconds every 8 seconds and was defined as the absence of movement of the mouse with tail erection. Percentage of 10 seconds period freezing was reported to the total amount of freezing.

CLP mice [4] = test: Morris water maze after sepsis; format: in vivo
Text: as §1
Morris Water Maze was realized as described by Vorhees et al. Nature Protocols 2006. It consisted in a phase of spatial learning and a probe trial. During the first phase the animal learns spatial position of a platform (11 cm diameter) hidden in a swimming pool (120 cm diameter) with opaque water relatively to cues placed on the water tank and in the experimental room. The animal is released in a random quadrant 4 times per day during 7 days. The distance (cm) before reaching the platform, the latency (s) and the proportion of time spent in each quadrant is measured. After each day the learning curve of mice reaching the platform is drawn. If this curve reached a plateau, the probe trial is realized the next day. Probe trial consists in a recall of the spatial reference memory.
Figures J-M. Morris water Maze test (MWM) and Novel Object Location/Recognition tests.

TNF alpha, IL1 beta = test: ELISA assay on brain parenchyma after sepsis; format: in vivo, mice; conditions: during sepsis
Protocol: FIG. 3C—An ELISA assay was performed on brain parenchyma to detect lower changes in cytokine concentration.

[5] = tested on: CD11b positive cells (microglial cells); test: mRNA expression of M1/M2 markers and cytokines in sorted CD11b positive cells after sepsis; format: in vivo, mice
Protocol: RNA Purification: Total brains or mircodissected brain under binoccular magnifier were collected in liquid nitrogen and stored at −80° C. before processing. Tissues were unfrosted in 1 ml of Qiazol (Qiagen, Nederland) and shredded using a TissueLyzer II and metallic beads (Qiagen, Nederland). Two hundred microlitters of chloroform (Merck, Darmstadt, Deutschland) were added before spinning for 15′ at 4° C.-20 000 rpm. The upper aqeuous phase was collected and purified using RNEasy Minikit with a DNAse step (Qiagen, Nederland) to remove any remaining genomic DNA. Purified RNA were quantified and a reverse transcription on 500 ng of RNA using SuperScript® II Reverse Transcriptase (Life Technologies) was realized. Quantitative real time polymerase chain reaction was performed on 10 ng cDNA with SYBR® Select Master Mix (Roche, Franche) following manufacturer's recommandation on a StepOne™ Real-Time PCR System (Life Technologies) and results were analyzed on StepOne softwares. Triplicates with a Cycle Threshold standard deviation <0.2 were considered for further analyzes. ΔΔCT method was used to quantify fold increases between animals from different groups to control group mean. The following primers were used.
Datas are presented as mean±SEM compared to septic placebo group set at 1.

[6] = tested on: primary murine microglial cells; test: Pro- and anti-inflammatory marker transcription in primary microglial cells exposed to LPS; format: cell-based, C57/B16 mice; conditions: primary microglial cells after LPS exposure
Text: NO: 53) and anti-sense primer:[…] NO: 54). […] ID NO: 55) and anti-sense primer […] NO: 56). […] NO: 57) and anti-sense primer:[…] NO: 58).

[7] = cited from earlier work
[8] = tested on: rats treated to model traumatic brain injury; conditions: 54 mg/kg or 170 mg/kg single perfusion 15 minutes after injury; cited from earlier work
[9] = CD11b positive cells, 24 hours after sepsis, vs placebo

SMILES: CC[C@@H](C(N)=O)N1CCCC1=O (single isomer, unassigned) [levetiracetam]
- sepsis score vs placebo (CLP mice [1]): did not differ
- open field distance traveled (sepsis-associated lowering) (CLP mice [2]): did not influenced
- open field time spent not moving (CLP mice [2]): did not influenced
- open field mean distance to center (CLP mice [2]; p=0.043 Mann-Whitney): decreased
- motor response to electric shock during conditioning period (CLP mice [3]; between groups): did not differ
- auditory freezing time (CLP mice [3]; levetiracetam treated vs placebo treated CLP mice, p=0,024): lower
- Morris water maze learning to locate the platform (AUC of learning curve) (CLP mice [4]; septic mice): did not present an effect
- Morris water maze test day time in platform quadrant (CLP mice [4]; test day (probe trial), all groups): same amount of time
- TNF alpha expression in brain parenchyma (ELISA) (TNF alpha, IL1 beta): No difference
- IL1 beta in brain parenchyma (ELISA) (TNF alpha, IL1 beta; p<0.05): increased
- CD32 transcription [5, 9]: increased
- CD86 transcription [5, 9]: increased
- Il 1 beta transcription [5, 9]: increased
- MCP 1 transcription [5, 9]: increased
- anti inflammatory markers transcription [5, 9]: not increased
- microglial cell polarization ([5]; microglial cell sorting in whole brain of septic mice): polarized towards a pro-inflammatory (M1) phenotype
- expression of anti and proinflammatory markers [6]: modified
- solubility in acetonitrile ([7]; acetonitrile): 5.7 g/100 mL
- solubility in chloroform ([7]; chloroform): 65.3 g/100 mL
- solubility in ethanol ([7]; ethanol): 16.5 g/100 mL
- solubility in methanol ([7]; methanol): 53.6 g/100 mL
- solubility in n-hexane ([7]; n-hexane): practically insoluble
- solubility in water ([7]; water): 104.0 g/100 mL
- cognitive outcome [8]: improved
